Data as given in US8916499B2, “Herbicidal compositions comprising 4-amino-3-chloro-5-fluoro-6-(4-chloro-2-fluoro-3-methoxyphenyl) pyridine-2-carboxylic acid or a derivative thereof and a protoporphyrinogen oxidase inhibitor” (Dow AgroSciences LLC, priority 2012, dated 2014).
Several values for one entry are separate records, joined by “and”; a condition that tells them apart may be missing. Identical values can stand only once.

Columns and labels:
IPOHE = assay: Postemergence foliar-applied weed control, direct seeded rice, greenhouse (Example I); format: in vivo, Ipomoea hederacea Jacq.
ECHCG [1] = assay: as above; format: in vivo, Echinochloa crusgalli (L.) Beauv.
ECHCG [2] = assay: In-water applied weed control, transplanted paddy rice, greenhouse (Example II); format: in vivo, Echinochloa crus-galli (L.) P. Beauv.; settings: g ae/ha Compound A Acid+g ai/ha pyraclonil: r11 8.75+0, r12 17.5+0, r13 0+45, r14 8.75+45, r15 17.5+45
BRAPP = assay: Postemergence foliar-applied weed control, direct seeded rice, greenhouse (Example I); format: in vivo, Brachiaria platyphylla (Griseb.) Nash; settings: g ae/ha Compound A Acid+g ai/ha pyraclonil: r11 4.38+0, r12 0+33.75, r13 0+67.5, r14 0+135, r15 4.38+33.75, r16 4.38+67.5, r17 4.38+135
ISCRU = assay: as above; format: in vivo, Ischaemum rugosum Salisb.; settings: g ae/ha Compound A Benzyl Ester+g ai/ha pyraclonil: r37 8+0, r38 16+0, r39 0+67.5, r40 0+135, r41 0+270, r42 8+67.5, r43 16+67.5, r44 8+135, r45 16+135, r46 8+270, r47 16+270
ECHOR = assay: In-water applied weed control, transplanted paddy rice, greenhouse (Example II); format: in vivo, Echinochloa oryzoides (Ard.) Fritsch
CYPRO = assay: as above; format: in vivo, Cyperus rotundus L.; settings: g ae/ha Compound A Benzyl Ester+g ai/ha pyraclonil: r19 4.38+0, r20 8.75+0, r21 0+45, r22 0+90, r23 4.38+45, r24 8.75+45, r25 4.38+90, r26 8.75+90
CYPES = assay: Postemergence foliar-applied weed control, direct seeded rice, greenhouse (Example I); format: in vivo, Cyperus esculentus L.; settings: g ae/ha Compound A Acid+g ai/ha carfentrazone-ethyl: r27 4.38+0, r28 8.75+0, r29 0+7, r30 0+14, r31 4.38+7, r32 8.75+7, r33 4.38+14, r34 8.75+14
CYPIR = assay: as above; format: in vivo, Cyperus iria L.; settings: g ae/ha Compound A Benzyl Ester+g ai/ha carfentrazone-ethyl: r11 8.75+0, r12 0+3.5, r13 0+7, r14 0+14, r15 8.75+3.5, r16 8.75+7, r17 8.75+14
LEFCH [3] = assay: as above; format: in vivo, Leptochloa chinensis (L.) Nees
LEFCH [4] = assay: In-water applied weed control, transplanted paddy rice, greenhouse (Example II); format: in vivo, Leptochloa chinensis (L.) Nees; settings: g ae/ha Compound A Benzyl Ester+g ai/ha carfentrazone-ethyl: r11 8.75+0, r12 17.5+0, r13 35+0, r14 0+28, r15 8.75+28, r16 17.5+28, r17 35+28
DIGSA = assay: Postemergence foliar-applied weed control, direct seeded rice, greenhouse (Example I); format: in vivo, Digitaria sanguinalis (L.) Scop.; settings: g ae/ha Compound A Acid+g ai/ha carfentrazone-ethyl: r11 4.38+0, r12 8.75+0, r13 17.5+0, r14 0+14, r15 4.38+14, r16 8.75+14, r17 17.5+14

Row | SMILES | Visual Weed Control (%) - 21 DAA IPOHE Obs (IPOHE; g ae/ha Compound A Acid+g ai/ha pyraclonil: r53 35+0, r54 0+270, r55 35+270) | Visual Weed Control (%) - 21 DAA IPOHE Obs (IPOHE; g ae/ha Compound A Benzyl Ester+g ai/ha pyraclonil: r27 17.5+0, r28 35+0, r29 0+270, r30 17.5+270, r31 35+270) | Visual Weed Control (%) - 20 DAA ECHCG Obs (ECHCG [1]; g ae/ha Compound A Acid+g ai/ha pyraclonil: r24 4.38+0, r25 8.75+0, r26 0+33.75, r27 0+67.5, r28 0+135, r29 4.38+33.75, r30 8.75+33.75, r31 4.38+67.5, r32 8.75+67.5, r33 4.38+135, r34 8.75+135) | Visual Weed Control (%) - 21 DAA ECHCG Obs (ECHCG [1]; g ae/ha Compound A Acid+g ai/ha pyraclonil: r44 17.5+0, r45 35+0, r46 0+270, r47 17.5+270, r48 35+270) | Visual Weed Control (%) - 20 DAA ECHCG Obs (ECHCG [2]) | Visual Weed Control (%) - 20 DAA BRAPP Obs (BRAPP) | Visual Weed Control (%) - 21 DAA ISCRU Obs (ISCRU) | Visual Weed Control (%) - 20 DAA ECHOR Obs (ECHOR; g ae/ha Compound A Benzyl Ester+g ai/ha pyraclonil: r11 4.38+0, r12 8.75+0, r13 17.5+0, r14 0+45, r15 4.38+45, r16 8.75+45, r17 17.5+45) | Visual Weed Control (%) - 20 DAA CYPRO Obs (CYPRO) | Visual Weed Control (%) - 21 DAA CYPES Obs (CYPES) | Visual Weed Control (%) - 21 DAA ECHCG Obs (ECHCG [1]; g ae/ha Compound A Acid+g ai/ha carfentrazone-ethyl: r11 4.38+0, r12 8.75+0, r13 17.5+0, r14 0+14, r15 4.38+14, r16 8.75+14, r17 17.5+14) | Visual Weed Control (%) - 21 DAA ECHCG Obs (ECHCG [1]; g ae/ha Compound A Benzyl Ester+g ai/ha carfentrazone-ethyl: r11 8.75+0, r12 0+3.5, r13 0+7, r14 0+14, r15 8.75+3.5, r16 8.75+7, r17 8.75+14) | Visual Weed Control (%) - 21 DAA CYPIR Obs (CYPIR) | Visual Weed Control (%) - 19 DAA LEFCH Obs (LEFCH [3]; g ae/ha Compound A Acid+g ai/ha carfentrazone-ethyl: r39 19.4+0, r40 0+28, r41 19.4+28) | Visual Weed Control (%) - 19 DAA LEFCH Obs (LEFCH [3]; g ae/ha Compound A n-Butyl Ester+g ai/ha carfentrazone-ethyl: r11 16+0, r12 0+28, r13 16+28) | Visual Weed Control (%) - 21 DAA LEFCH Obs (LEFCH [4]) | Visual Weed Control (%) - 21 DAA DIGSA Obs (DIGSA) | Visual Weed Control (%) - 19 DAA ECHOR Obs (ECHOR; g ae/ha Compound A Acid+g ai/ha carfentrazone-ethyl: r28 42.4+0, r29 0+215, r30 42.4+215)
1 | C#CCN(C)c1c(C#N)cnn1-c1nn2c(c1Cl)CCCC2 [Pyraclonil, 1-(3-chloro-4,5,6,7-tetrahydropyrazolo[1,5-a]pyridin-2-yl)-5-(methyl-2-propynylamino)-1H-pyrazole-4-carbonitrile, reference compound] | 45% | 45% | 0% | 0% | 0% | 0% | 0% | 40% | 0% | – | – | – | – | – | – | – | – | –
2 | CCOC(=O)C(Cl)Cc1cc(-n2nc(C)n(C(F)F)c2=O)c(F)cc1Cl (stereo not drawn) [Carfentrazone-ethyl, ethyl α,2-dichloro-5-[4-(difluoromethyl)-4,5-dihydro-3-methyl-5-oxo-1H-1,2,4-triazol-1-yl]-4-fluorobenzenepropanoate, reference compound] | – | – | – | – | – | – | – | – | – | 0% | 10% | 0% and 10% | 0% | 10% | 10% | 10% | 0% | 65%
